Laboratory results taken from US12534501B2, “Targeting deregulated Wnt signaling in cancer using stabilized alpha-helices of BCL-9” (Dana-Farber Cancer Institute, Inc., priority 2011, dated 2026).
Numbered stars: 1 amine (or outer) side, 2 acyl side, 3 side chain; on linkers, the order of the positions; unused ones are H or OH. Bridge positions count the residues as written; N and C are the ends. Square brackets hold non-standard residues; d marks the D form. Peptide text beside a SMILES is read from it. ξ: configuration not given here. ξαMeNle(6-ylidene) = CC(CCCC=[*:3])(N[*:1])C(=O)[*:2]; Nle = CCCC[C@H](N)C(=O)O

Legend:
Type in all cases: cell-based
Colo320 cells = test: Cellular uptake of FITC-labelled peptides; conditions: FITC derivatives
Protocol: For fluorescence microscopy evaluation, cells were prepared using a cytocentrifuge (Thermo Shandon) and fixed as previously described (Sukhdeo, K. et al. Proc Natl Acad Sci USA 104, 7516-21 (2007); Mani, M. et al. Cancer Res 69, 7577-86 (2009)). Anti-β-catenin and rhodamine-conjugated secondary antibodies (5 μg/ml; Southern Biotechnology) were employed. Images were obtained using a BioRad Radiance 2000 laser scanning confocal microscope. Cell permeability of SAH-BCL9B and SAH-BCL9B(R359E) were determined by fluorescence microscopy of cells treated with FITC-derivatives of the above described stapled peptides and also by blotting/fluorescence scan, performed as previously described (Pitter, K. et al Methods Enzymol, 446, (2008), 387-408; Walensky, L. D. et al. Science 305, 1466-70 (2004). See results in FIG. 1E, FIG. 7.

[1] = tested on: INA-6 multiple myeloma cells; test: Cell proliferation, thymidine incorporation; conditions: 5 μM, 24 h, vs vehicle and SAH-BCL9B(R359E)
Protocol: (§1) Cell proliferation assays were performed as described (Sukhdeo, K. et al. Proc Natl Acad Sci USA 104, 7516-21 (2007)). Cell viability was measured using the CellTiter-Glo assay (Promega) according to the manufacturer's instructions. Apoptosis was evaluated by activated caspase-3 and PARP western blotting. See results in FIG. 3A-FIG. 3F, FIG. 13, and FIG. 20.

LS174T cell line = test: Cell proliferation of cultured colon cancer cells; conditions: does not express BCL9
Protocol: as §1

[2] = tested on: HCT116, HCT116DO20 and HCT116KO58 cells; test: Cell proliferation of cultured colon cancer cells; conditions: HCT116 and derivatives, not dependent on Wnt/β-catenin activity
Protocol: as §1

[3] = tested on: CRC cell lines expressing BCL9; test: Cell proliferation of cultured colon cancer cells
Protocol: as §1

[4] = tested on: Wnt target genes in DLD1 colon cancer cell line; test: Affymetrix gene expression profiling / GSEA and qRT-PCR validation
Protocol: RNA from SAH-BCL9B and vehicle (0.1% DMSO)-treated cells were run on an Affymetrix U133A 2.0 array chip as described (Mollering et al, Nature 462, 182-8 (2009). Statistical analyses were performed in R (http://www.r-project.org). The array data were normalized with rma method (Bolstad, B. M., et al. Bioinformatics 19, 185-93 (2003)) as implemented in the Affy package (http://www.bioconductor.org/packages/2.6/bioc/html/affy.html) and differential expression calculated with empirical Bayes shrinkage of the standard errors toward a common value with LIMMA (http://www.bioconductor.org/packages/2.6/bioc/html/limma.html) (McCarthy, D. J. & Smyth, G. K. Bioinformatics 25, 765-71 (2009); Smyth, G. K. Stat Appl Genet Mol Biol 3, Article3 (2004)). Gene set enrichment analysis was performed using GSEA software (version 2.06) and mSigDB (version 2.5) (Subramanian, A. et al. Proc Natl Acad Sci USA 102, 15545-50 (2005)).
To further investigate the specificity of SAH-BCL9B in blocking Wnt transcriptional activity, comparative genome-wide expression analyses of Wnt target genes in the DLD1 colon cancer cell line, for which a Wnt transcription pathway signature has been described (L. G. Van der Flier et al., Gastroenterology 132, 628 (2007)), was performed. RNA from triplicate SAH-BCL9B- and vehicle-treated DLD1 samples (10 μM each for 12 hours) was isolated for gene expression profiling analyses. Affymetrix Human U133 Plus 2.0 arrays were processed using the function of the affy Bioconductor package (URL http://www.R-project.org.). Gene sets were compiled from Van der Flier et al. and gene set enrichment and statistical analyses performed using GSEA software (http://www.broad.mit.edu/GSEA) and a two-tailed t-test, respectively. Microarray data has been deposited in the Gene Expression Omnibus (http://www.ncbi.nlm.nih.gov/geo) and comply with MIAME annotation standards. […]

[5] = tested on: VEGF secretion by MM1S cells; test: VEGF ELISA; conditions: 5 μM, 24 h
Protocol: (§2) VEGF ELISA was performed as previously described (Mani, M. et al. Cancer Res 69, 7577-86 (2009)). Briefly, cells (1×10^6) were treated with vehicle and SAH-BCL9 peptides (5 μM) for 24 h. VEGF levels in the supernatant were then measured according to the manufacturer's ELISA protocol (DuoSet, R&D Systems).

[6] = tested on: VEGF secretion by Colo320 cells; test: VEGF ELISA; conditions: 5 μM, 24 h
Protocol: as §2

[7] = tested on: Wnt target genes in MM1S cells; test: qRT-PCR of Wnt/β-catenin target genes; conditions: MM1S (FIG. 19A), 10 μM
Protocol: To measure the effects of vehicle, SAH-BCL9B, and SAH-BCL9MUT on the expression of Wnt/β-catenin target genes, including VEGF, in Colo320 (FIG. 18) and MM1S (FIG. 19) cell lines, quantitative PCR (qRT-PCR) analysis was performed. RNA was extracted with TRIzol Reagent (Invitrogen) according to the manufacturer's protocol. Total RNA (2 μg) was reverse transcribed (SuperScript VILO cDNA synthesis kit, Invitrogen) and qPCR was performed using an Applied Biosynthesis 7500 Real-time PCR system. PCR primers were designed as below: […]
Analysis of target genes was conducted in quadruplicate using POWER SYBR Green Master Mix (Applied Biosystems) as previously described (M. Mani et al., Cancer Res 69, 7577 (2009)). Transcripts levels were normalized to β-actin expression. These experiments were repeated three times.

Compound | cellular uptake (Colo320 cells) | growth by thymidine incorporation [1] | proliferation (LS174T cell line) | proliferation [2] | proliferation [3] | VEGF-A expression ([4]; DLD1) | Axin2 expression ([4]; DLD1, 10 μM, 12 hours) | GSEA correlation of down-regulated genes with dominant-negative TCF1 and TCF4 ([4]; DLD1, 10 μM, 12 hours, adenoma and carcinoma signatures) | VEGF secretion [5] | VEGF secretion [6] | mRNA levels of VEGF, c-MYC, LGR5, LEF1, and AXIN2 [7]
SAH-BCL9B(R359E): SEQ ID NO: 7: LSQEQLEHEERSLXTLRXIQRBLF; reverse polarity point mutant, negative control of SAH-BCL9B | similar | – | – | – | – | – | – | – | – | – | –
CCCC[C@H](NC(=O)[C@H](CCCNC(=N)N)NC(=O)[C@H](CCC(N)=O)NC(=O)[C@@H](NC(=O)C1(C)CCCC=CCCCC(C)(NC(=O)[C@H](CC(C)C)NC(=O)[C@H](CO)NC(=O)[C@H](CCCNC(=N)N)NC(=O)[C@H](CCC(=O)O)NC(=O)[C@H](CCCNC(=N)N)NC(=O)[C@H](Cc2c[nH]cn2)NC(=O)[C@H](CCC(=O)O)NC(=O)[C@H](CC(C)C)NC(=O)[C@H](CCC(N)=O)NC(=O)[C@H](CCC(=O)O)NC(=O)[C@H](CCC(N)=O)NC(=O)[C@H](CO)NC(=O)[C@H](CC(C)C)NC(C)=O)C(=O)N[C@@H]([C@@H](C)O)C(=O)N[C@@H](CC(C)C)C(=O)N[C@@H](CCCNC(=N)N)C(=O)N1)[C@@H](C)CC)C(=O)N[C@@H](CC(C)C)C(=O)N[C@@H](Cc1ccccc1)C(N)=O (some centres unmarked) [SAH-BCL9B] (Ac-LSQEQLEHRERSL[ξαMeNle(6-ylidene)]TLR[ξαMeNle(6-ylidene)]IQR[Nle]LF-NH2; staple 14-18) | – | significantly reduced growth | no response | no sensitivity | significantly reduced the proliferation | downregulated | among the most down-regulated genes | strong and statistically significant correlation | decreased VEGF secretion | decreased VEGF secretion | dose-responsively reduced
